Experimental findings from ChEMBL document CHEMBL1141061, “Structural elucidation of A-74528, an inhibitor for 2',5'-phosphodiesterase isolated from Streptomyces sp” (Bioorg Med Chem Lett, 2005) are described below.

The assay in a line: Inhibitory concentration against human 2'-phosphodiesterase.

Converted amounts (≈) assume the structure as drawn.

As a reminder, the IC50 is the concentration needed to halve the response being measured. A higher IC50 goes with weaker potency. As for `C[C@@H]1c2c(O)cc(O)c3c2[C@H]2[C@H](CC(=O)C4=C(O)c5c(O)cc(O)cc5[C@@H](C3=O)[C@]42Cc2cc(O)cc(=O)o2)[C@H]1O`, the IC50 came to 34 µg/mL (≈ 60.7 µM).
